The source made the active and inactive calls. How the calls were made is not given here.

This assay addresses Mothers against decapentaplegic homolog 3 (Homo sapiens, UniProt P84022). Put plainly: inhibitors of SMAD-driven TGF-beta signaling – dose response (AID 715). The class given is functional.

Sequence of Mothers against decapentaplegic homolog 3 (P84022 whole entry): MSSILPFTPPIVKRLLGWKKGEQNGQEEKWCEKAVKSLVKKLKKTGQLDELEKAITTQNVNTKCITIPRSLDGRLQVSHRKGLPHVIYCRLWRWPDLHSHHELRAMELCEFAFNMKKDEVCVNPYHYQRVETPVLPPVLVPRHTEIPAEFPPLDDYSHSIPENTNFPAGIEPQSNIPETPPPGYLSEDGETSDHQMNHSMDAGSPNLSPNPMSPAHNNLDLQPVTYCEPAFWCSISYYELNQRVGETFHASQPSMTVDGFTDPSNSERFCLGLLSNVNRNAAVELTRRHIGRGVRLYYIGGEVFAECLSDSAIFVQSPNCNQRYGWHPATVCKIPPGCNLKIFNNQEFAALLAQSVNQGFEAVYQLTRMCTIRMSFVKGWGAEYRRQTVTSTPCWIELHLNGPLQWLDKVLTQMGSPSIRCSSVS

Regarding `Nc1c(N2CCCC2)cc(Cl)c2nonc12`, the IC50 (usually the concentration that inhibits the measured activity by half) is 18.3 µM (active).

These data come from ChEMBL document CHEMBL1201862, “PubChem BioAssay data set” (2004).
